Literature values in patent US20100028912A1, “IMAGING USING RADIOACTIVE MONOCATIONS IN COMBINATION WITH A RECEPTOR BINDING LIGAND THAT STIMULATES THE INFLUX OF CATIONS” (BRACCO IMAGING S.P.A., priority 2006, published 2010).

How the values were obtained:
Na+-K+ pump = conditions: guinea pig pancreatic acinar cells in vitro
[1] = tested on: guinea pig tracheal smooth muscle cells; conditions: cultured guinea pig tracheal smooth muscle cells
[2] = tested on: quiescent Swiss 3T3 cells; conditions: cells treated with Na+/K+ ATPase pump inhibitor
[3] = tested on: alpha(1)-adrenoceptors (AR); conditions: 30 μM; isolated perfused rat hearts and isolated cardiomyocytes
[4] = tested on: rat vascular smooth muscle cells; conditions: rat vascular smooth muscle cells in culture
[5] = tested on: Na+-K+-2Cl- cotransporter (NKCC); conditions: acute cell exposure; rat L6 skeletal muscle cells

CSCC[C@H](NC(=O)[C@H](Cc1ccc(OS(=O)(=O)O)cc1)NC(=O)[C@@H](N)CC(=O)O)C(=O)NCC(=O)N[C@@H](Cc1c[nH]c2ccccc12)C(=O)N[C@@H](CCSC)C(=O)N[C@@H](CC(=O)O)C(=O)N[C@@H](Cc1ccccc1)C(N)=O [CCK-8, cholecystokinin octapeptide]
stimulation of ouabain-sensitive 86Rb+ uptake (Na+-K+ pump): approximately 60%

C[N+](C)(C)CCOC(N)=O [Carbachol]
stimulation of ouabain-sensitive 86Rb+ uptake (Na+-K+ pump): approximately 60%

NCCc1c[nH]c2ccc(O)cc12 [Serotonin, 5-hydroxytryptamine]
uptake of 86Rb+ [1]: increases

CCCC(=O)Nc1ncnc2c1ncn2[C@@H]1O[C@@H]2COP(=O)(O)O[C@H]2[C@H]1OC(=O)CCC [dibutyryl cAMP]
increase of Na+-K+ pump activity (as measured by ouabain-sensitive 86Rb+ uptake) (Na+-K+ pump): approximately 40%

C[C@@H]1O[C@@H](O[C@H]2C[C@@H](O)[C@]3(CO)[C@H]4[C@H](O)C[C@]5(C)[C@@H](C6=CC(=O)OC6)CC[C@]5(O)[C@@H]4CC[C@]3(O)C2)[C@H](O)[C@H](O)[C@H]1O [ouabain]
effect on bombesin stimulation of 86Rb+ uptake [2]: virtually abolished

CNC[C@H](O)c1cccc(O)c1 [phenylephrine]
86Rb+ influx into myocardial cells [3]: increased

Cn1c(=O)c2[nH]cnc2n(C)c1=O [theophylline]
increase of Na+-K+ pump activity (as measured by ouabain-sensitive 86Rb+ uptake) (Na+-K+ pump): approximately 40%

Platelet-derived growth factor
influx of 86Rb [4]: acute increase

Secretin
increase of Na+-K+ pump activity (as measured by ouabain-sensitive 86Rb+ uptake) (Na+-K+ pump): approximately 40%

insulin
stimulation of NKCC-mediated 86Rb+ influx [5]: ~1.6 fold
